Test results: patent US20110038997A1, “Method of processing poultry and other meat to reduce or eliminate Salmonella” (Birko Corporation, priority 2007, published 2011)

Key:
Assay type in all cases: cell-based
[1] = system: Escherichia coli (ATCC 12435); assay: Log kill of E. coli ATCC 12435 by lactic/citric acid mixtures; conditions: 2.5% acid, total; 15 seconds, 76 deg F
Experimental: (§1) The tests were performed at room temperature, e.g., 71 deg. F. A reaction mixture was prepared including the Salmonella, water and the aqueous solution of lactic acid. The reaction was permitted to proceed for the time indicated for each test in Table 1, and was terminated by the introduction of a quench buffer comprising 4.2 M potassium phosphate buffer, pH 7.2. The results of the test were evaluated using a series of 10-fold dilutions as needed to determine, on a standard plating agar, the titer of bacteria that survived the antimicrobial treatment. The plating medium was Salmonella Shigella agar, a medium that would allow the growth of most bacteria. The reduction in the bacteria count is expressed as the “log kill.” “Log kill” is generally defined as log10[initial cfu/ml]−log10[remaining cfu/ml].
(§2) The duration of treatment was 15 seconds at an ambient temperature of 76 deg F.
The same tests were repeated using E. coli ATCC 12435 instead of the SAC-2 E. coli, and tryptic soy agar was employed instead of Salmonella Shigella agar.

Escherichia coli (SAC-2) = assay: Log kill of E. coli SAC-2 by lactic/citric acid mixtures; conditions: 2.5% acid, total; 15 seconds, 76 deg F
Experimental: as §1
An experiment was performed using the same protocol as in Example 1. In this case, the target bacteria was a sample of E. coli (given the name “SAC-2”) taken from a local sewer facility. The isolate was characterized using standard microbiological methods including selective and indicative culture media and other metabolic tests. The results obtained were consistent with E. coli.
as §2

Salmonella culture (M61) = assay: Log kill of Salmonella M61 in suspension, acid treatment, quench and plating on Salmonella Shigella agar
Experimental: In each instance a target sample was employed using approximately 50 micro liters of a Salmonella culture (given the name “M61”) derived from a sample of chicken meal contaminated with chicken feces and approximately 1.5×10^7 cells per ml. […] The results obtained were consistent with the genus Salmonella.
(§3) The tests were performed at room temperature, e.g., 71 deg. […] The reaction was permitted to proceed for the time indicated for each test in Table 1, and was terminated by the introduction of a quench buffer comprising 4.2 M potassium phosphate buffer, pH 7.2. […] The plating medium was Salmonella Shigella agar, […]. The reduction in the bacteria count is expressed as the “log kill.” “Log kill” is generally defined as log10[initial cfu/ml]−log10[remaining cfu/ml].
An experiment was performed using the same protocol as in Example 1, except that the duration of treatment with the antimicrobial agent was maintained constant at 20 seconds. […] All tests were conducted at an ambient temperature of approximately 71 deg. F.
An experiment was performed using the same protocol as in Example 3. In this case, the target organism was a sample of “M61” Salmonella.

[2] = system: Salmonella enterica ATCC 14028; assay: Log kill of Salmonella enterica ATCC 14028 in suspension, plating on tryptic soy agar; conditions: for Log Kill Salmonella (ATCC 14028) / Relative Kill Salmonella (ATCC 14028): 15 seconds
Experimental: as §3
Similar tests were performed using Salmonella enterica ATCC 14028 instead of the M61 Salmonella, and tryptic soy agar was employed instead of Salmonella Shigella agar.
The same tests were repeated using Salmonella enterica ATCC 14028 instead of the M61 Salmonella, and tryptic soy agar was employed instead of Salmonella Shigella agar.
The same tests were repeated using Salmonella enterica ATCC 14028 instead of Salmonella M61, and tryptic soy agar was employed instead of Salmonella shigella.
Another series of tests were performed as those resulting in Table VB, except that the acids were present in a total amount of 2%.

Row | SMILES | Log Kill Escherichia coli (ATCC 12435) [1] | Log Kill Escherichia coli (SAC-2) (Escherichia coli (SAC-2)) | Salmonella (M61) Log Kill (Salmonella culture (M61); 2.5 wt % aqueous solution, 80 sec., room temperature 71 deg. F) [log kill] | performance compared to that of lactic acid, Salmonella M61 log kill (Salmonella culture (M61); 2.5 wt. % solution, 80 seconds) | Log Kill Salmonella (ATCC 14028) ([2]; 2.0% total acid) | Relative Kill Salmonella (ATCC 14028) ([2]; 2.0% total acid, 40/40 = 1) | Citric Acid Efficacy Log kill (75 F., 20 sec) ([2]; 2.5 % citric acid, Salmonella ATCC 14028, 75 F., 20 sec) | Salmonella (ATCC 14028) Log Kill ([2]; 2.5 wt % aqueous solution, 15 sec.) [log kill] | Log Kill Salmonella (ATCC 14028) ([2]; […] total acid) | Relative Kill Salmonella (ATCC 14028) ([2]; […] total acid, 80/0 = 1)
1 | CC(O)C(=O)O (stereo not shown) [lactic acid] | 1.93 | 0.953 | – | – | – | – | – | – | – | –
2 | O=C(O)CC(O)(CC(=O)O)C(=O)O [citric acid] | – | – | 0.29 | poor | 0.444 | 0.663 | 0.555 | 0.56 | 0.322 | 0.422
